Source: PMC7343746, “(2S, 4R)-4-[^18F]Fluoroglutamine for In vivo PET Imaging of Glioma Xenografts in Mice: an Evaluation of Multiple Pharmacokinetic Models” (Molecular Imaging and Biology, 2020)

Columns and labels:
[1] = system: patient-derived BT3 glioma cells; experiment: 2-Compartment model, orthotopic model; type: in vivo, BALB/cOlaHsd-Foxn1^nu mouse
Description: (§1) Image analysis was performed using CARIMAS software published and freely distributed by the Turku PET Center (http://turkupetcentre.fi/carimas/). CT scans were used as rough anatomical reference while tumor regions of interest (ROI) were hand-drawn based upon observed spikes of radioactivity in the PET images at locations correlating with recorded tumor grafts. Control muscle ROIs were drawn on the side opposite to the tumor in the leg flank muscle (based on CT) while the blood ROI was drawn based upon heart anatomical location and observed PET image radioactivity spike during the initial 20 s of imaging in the left ventricle. Standardized uptake values (SUV) were calculated with respect to ROI volume, mean and max tumor radioactivity, total injected radioactivity dose (corrected for tail, cannula, and syringe residual radioactivity), and animal weight, and were additionally presented as tumor-to-background ratio (TBR, tumor-to-healthy brain region for intracranial gliomas and tumor-to-muscle for subcutaneous gliomas) as defined by recent glioma research literature standards. Mean and maximum TBR values were reported as ROI radioactivity per volume divided by mean background radioactivity per volume. The blood radioactivity SUV and gender-specific metabolite-corrected blood radioactivity SUV were then applied to multiple pharmacokinetic models to characterize the flux of the tracer (further described in the “Modeling” section).
(§2) Using the heart’s left ventricle ROI from the PET data as an uncorrected radioactivity level input and the bioavailable parent-tracer fraction (results: Eqs. 3 and 4 applied to the uncorrected input) as the corrected input, multiple models were investigated to characterize the tissue uptake dynamics. Two-compartment modeling and Logan, Patlak, and Yokoi plots were used to separately model the pharmacokinetics for the gliomas (both subcutaneous and orthotopic loci) and their respective control tissues (healthy muscle and healthy brain, respectively). Where indicated, means plus/minus standard deviations are reported. Difference in parameters for uncorrected versus correct and target tissue versus their respective control regions were tested with students’ paired t tests with P values lower than 0.05 being considered significant.

rat BT4C glioma cells [2] = experiment: Ex vivo biodistribution; type: in vivo, Foxn1^nu/nu mouse; details: higher than subcutaneous tumor
Excerpt: See Suppl. Materials in ESM for detailed descriptions of biodistribution, stability, cryosectioning, autoradiography, and histology.
Ex Vivo Biodistribution Results
The tracer accumulated highly in the pancreatic tissue with notable high uptake in the skull (bo ne) and femur (bone + marrow). The bone uptake is classically characteristic of defluorination occurring which leads to absorption into the osseous tissue. […]
adipose tissue likely due to the comparative increased number of metabolic processes which encompass its cell type characteristics.
Supplemental Fig. 11. Ex vivo biodistribution averages of [ 18F]FGln uptake 63 minutes post-injection in subcutaneously xenografted BT4C tumor bearing Foxn1 nu/nu mice (female, n = 5) and control C57BL/6JRj […]

rat BT4C glioma cells [3] = experiment: Patlak plot (irreversible uptake model), subcutaneous model; type: in vivo, Foxn1^nu/nu mouse; details: for Patlak Ic (AB) y intercept: AB input; for Patlak Ic (PC) y intercept: PC input
Description: as §1, §2

[4] = Subject A brain (control), arterial blood input
[5] = Subject A brain (control), plasma-corrected input
[6] = Subject A glioma max., arterial blood input
[7] = Subject A glioma max., plasma-corrected input
[8] = Subject A o.t. glioma, arterial blood input
[9] = Subject A o.t. glioma, plasma-corrected input
[10] = Subject B brain (control), arterial blood input
[11] = Subject B brain (control), plasma-corrected input
[12] = Subject B glioma max., arterial blood input
[13] = Subject B glioma max., plasma-corrected input
[14] = Subject B o.t. glioma, arterial blood input
[15] = Subject B o.t. glioma, plasma-corrected input
[16] = Bone (femoral condyle) average (n = 6)

2-Compartment K1 [1, 4]: 0.015 mL min-1 mL-1
2-Compartment K1/k2 [1, 4]: 0.143 mL mL-1
2-Compartment Vb [1, 4]: 7.82%
2-Compartment k3 [1, 4]: 0.032 min⁻¹
2-Compartment k3*K1/k2 [1, 4]: 0.005
2-Compartment k3/(k2+k3) [1, 4]: 0.235
2-Compartment K1 [1, 5]: 0.016 mL min-1 mL-1
2-Compartment K1/k2 [1, 5]: 0.210 mL mL-1
2-Compartment Vb [1, 5]: 7.77%
2-Compartment k3 [1, 5]: 0.051 min⁻¹
2-Compartment k3*K1/k2 [1, 5]: 0.011
2-Compartment k3/(k2+k3) [1, 5]: 0.396
2-Compartment K1 [1, 6]: 0.149 mL min-1 mL-1
2-Compartment K1/k2 [1, 6]: 1.169 mL mL-1
2-Compartment Vb [1, 6]: 20%
2-Compartment k3 [1, 6]: 0.015 min⁻¹
2-Compartment k3*K1/k2 [1, 6]: 0.018
2-Compartment k3/(k2+k3) [1, 6]: 0.105
2-Compartment K1 [1, 7]: 0.156 mL min-1 mL-1
2-Compartment K1/k2 [1, 7]: 1.769 mL mL-1
2-Compartment Vb [1, 7]: 20%
2-Compartment k3 [1, 7]: 0.023 min⁻¹
2-Compartment k3*K1/k2 [1, 7]: 0.041
2-Compartment k3/(k2+k3) [1, 7]: 0.208
2-Compartment K1 [1, 8]: 0.116 mL min-1 mL-1
2-Compartment K1/k2 [1, 8]: 0.919 mL mL-1
2-Compartment Vb [1, 8]: 11.5%
2-Compartment k3 [1, 8]: 0.018 min⁻¹
2-Compartment k3*K1/k2 [1, 8]: 0.016
2-Compartment k3/(k2+k3) [1, 8]: 0.122
2-Compartment K1 [1, 9]: 0.123 mL min-1 mL-1
2-Compartment K1/k2 [1, 9]: 1.373 mL mL-1
2-Compartment Vb [1, 9]: 11.6%
2-Compartment k3 [1, 9]: 0.027 min⁻¹
2-Compartment k3*K1/k2 [1, 9]: 0.038
2-Compartment k3/(k2+k3) [1, 9]: 0.234
2-Compartment K1 [1, 10]: 0.017 mL min-1 mL-1
2-Compartment K1/k2 [1, 10]: 0.127 mL mL-1
2-Compartment Vb [1, 10]: 5.5%
2-Compartment k3 [1, 10]: 0.031 min⁻¹
2-Compartment k3*K1/k2 [1, 10]: 0.004
2-Compartment k3/(k2+k3) [1, 10]: 0.186
2-Compartment K1 [1, 11]: 0.018 mL min-1 mL-1
2-Compartment K1/k2 [1, 11]: 0.168 mL mL-1
2-Compartment Vb [1, 11]: 5.52%
2-Compartment k3 [1, 11]: 0.051 min⁻¹
2-Compartment k3*K1/k2 [1, 11]: 0.009
2-Compartment k3/(k2+k3) [1, 11]: 0.318
2-Compartment K1 [1, 12]: 0.102 mL min-1 mL-1
2-Compartment K1/k2 [1, 12]: 0.447 mL mL-1
2-Compartment Vb [1, 12]: 13.3%
2-Compartment k3 [1, 12]: 0.036 min⁻¹
2-Compartment k3*K1/k2 [1, 12]: 0.016
2-Compartment k3/(k2+k3) [1, 12]: 0.137
2-Compartment K1 [1, 13]: 0.111 mL min-1 mL-1
2-Compartment K1/k2 [1, 13]: 0.515 mL mL-1
2-Compartment Vb [1, 13]: 13.4%
2-Compartment k3 [1, 13]: 0.062 min⁻¹
2-Compartment k3*K1/k2 [1, 13]: 0.032
2-Compartment k3/(k2+k3) [1, 13]: 0.224
2-Compartment K1 [1, 14]: 0.061 mL min-1 mL-1
2-Compartment K1/k2 [1, 14]: 0.536 mL mL-1
2-Compartment Vb [1, 14]: 10.2%
2-Compartment k3 [1, 14]: 0.020 min⁻¹
2-Compartment k3*K1/k2 [1, 14]: 0.011
2-Compartment k3/(k2+k3) [1, 14]: 0.150
2-Compartment K1 [1, 15]: 0.063 mL min-1 mL-1
2-Compartment K1/k2 [1, 15]: 0.767 mL mL-1
2-Compartment Vb [1, 15]: 10.5%
2-Compartment k3 [1, 15]: 0.032 min⁻¹
2-Compartment k3*K1/k2 [1, 15]: 0.025
2-Compartment k3/(k2+k3) [1, 15]: 0.280
Pancreas uptake relative to tumor (rat BT4C glioma cells [2]): 6 fold
Patlak Ic (AB) y intercept (rat BT4C glioma cells [3]; [16]): 0.5752 ± 0.1597
Patlak Ic (PC) y intercept (rat BT4C glioma cells [3]; [16]): 0.3705 ± 0.2561
Patlak Ic (AB) y intercept (rat BT4C glioma cells [3]; Flank muscle average (n = 6)): 0.5790 ± 0.1835
Patlak Ic (PC) y intercept (rat BT4C glioma cells [3]; Flank muscle average (n = 6)): 0.8154 ± 0.2742
Patlak Ic (AB) y intercept (rat BT4C glioma cells [3]; Flank tumor average (n = 6)): 1.0521 ± 0.2524
Patlak Ic (PC) y intercept (rat BT4C glioma cells [3]; Flank tumor average (n = 6)): 1.5318 ± 0.3888
Patlak Ic (AB) y intercept (rat BT4C glioma cells [3]; Neck tumor average (n = 6)): 1.2083 ± 0.1715
Patlak Ic (PC) y intercept (rat BT4C glioma cells [3]; Neck tumor average (n = 6)): 1.7708 ± 0.2668
Irreversible uptake rate relative to reversible uptake rates (rat BT4C glioma cells [3]; Patlak versus reversible models): roughly 15 times lower
SMILES: NC(=O)[C@H]([18F])C[C@H](N)C(=O)O [[^18F]FGln, (2S, 4R)-4-[^18F]fluoroglutamine]
